Reference: US9720005B2, “Immunoassay for compounds of the NBOMe family” (Randox Laboratories Limited, priority 2014, dated 2017)
Converted amounts (≈) assume the structure as drawn. Counter-ions that a name gives are not always drawn.

Tests used:
Antibody (RS2708) = assay: Competitive ELISA for NBOMe based compounds (Example 13), HRP tracer vs calibrator/cross-reactant; assay type: binding, sheep; conditions: for % Cross-reactivity: IC50 25I-NBOMe.HCL/IC50 CR×100; for % CR: relative to 25I-NBOMe.HCl
Description: IgG was extracted from the antisera using ammonium sulphate/caprylic acid precipitation and the purified antibody was immobilised on a 96 well ELISA plate at 5 μg/ml in 10 mM TRIS buffer, pH 8.5 overnight at 4° C. […] The plate was washed (×3) with TBST and the calibrator (25I-NBOMe.HCL) or potential cross reactants added (50 μl per well), followed by HRP tracer (75 μl/well) to the appropriate wells. The plates were then incubated for 60 minutes at 25° C. […] 125 μL of signal (TMB) was then added to each well for 20 mins at room temperature in the dark. The reaction was stopped by the addition of 125 μl of 0.2 M Sulphuric Acid per well and the plates read immediately at 450 nm. Calibration curves were generated and these were used to determine the sensitivity and specificity of the immunoassay for 25I-NBOMe-HCL and potential cross-reactants. The data are inputted to a computer program called ‘KC Junior’ (Biotek). It gives a 4 parameter fit curve and allows the calculation of concentrations between the standard runs. This program is used to calculate the IC50 values by dividing the 0 ng/ml optical density (OD) value by 2 and obtaining the concentration value from the curve for this OD. The results of this study are presented in Tables 1-3, cross-reactivity being calculated according to the following formula: % CR=IC50 25I-NBOMe.HCL/IC50 CR×100
Wherein % CR is the percentage cross-reactivity, IC50 25I-NBOMe HCL is the concentration of 25I-NBOMe-HCL which causes 50% displacement of signal and IC50 CR is the concentration of potential cross-reactant that causes 50% displacement of signal.

[1] = recreational drug use; cited from earlier work
[2] = case study of 25I-NBOMe use; cited from earlier work
[3] = Table 2, antibody coated at 5 μg/ml, HRP tracer at 1/64K

Compound | % Cross-reactivity (Antibody (RS2708); Table 2) | IC50 (Antibody (RS2708); [3]) | also measured
COc1cc(CCNCc2ccccc2O)c(OC)cc1N [25(NH2)-NBOH] | 18.5% | 0.887 ng/mL (≈ 2.93 nM) | –
COc1cc(CCNCc2ccccc2OC)c(OC)cc1Br [25B-NBOMe•HCl, 2-(4-Bromo-2,5-dimethoxyphenyl)-N-[(2-methoxyphenyl)methyl]ethanamine] | 118.8% | 0.138 ng/mL | –
COc1cc(CCNCc2ccccc2OC)c(OC)cc1C [25D-NBOMe•HCl, 2-(2,5-Dimethoxy-4-methylphenyl)-N-[(2-methoxyphenyl)methyl]ethanamine] | 157.7% | 0.104 ng/mL | –
CCc1cc(OC)c(CCNCc2ccccc2OC)cc1OC [25E-NBOMe•HCl] | 126.2% | 0.13 ng/mL | –
COc1ccc(OC)c(CCNCc2ccccc2OC)c1 [25H-NBOMe•HCl, 2-(2,5-dimethoxyphenyl)-N-(2-methoxybenzyl)ethanamine] | 170.8% | 0.096 ng/mL | –
COc1cc(CCNCc2ccccc2OC)c(OC)cc1I [25I-NBOMe•HCl, 2-(4-Iodo-2,5-dimethoxyphenyl)-N-[(2-methoxyphenyl)methyl] ethanamine] | 100% | 0.164 ng/mL | B/Bo (Antibody (RS2708); Conc. 0.03125 ng/ml, 0 ng/ml = 100.0): 90.2; B/Bo (Antibody (RS2708); Conc. 0.0625 ng/ml, 0 ng/ml = 100.0): 80.2; B/Bo (Antibody (RS2708); Conc. 0.125 ng/ml, 0 ng/ml = 100.0): 61.3; B/Bo (Antibody (RS2708); Conc. 0.25 ng/ml, 0 ng/ml = 100.0): 33.4; B/Bo (Antibody (RS2708); Conc. 0.5 ng/ml, 0 ng/ml = 100.0): 14.7; B/Bo (Antibody (RS2708); Conc. 1 ng/ml, 0 ng/ml = 100.0): 7.6; B/Bo (Antibody (RS2708); Conc. 2 ng/ml, 0 ng/ml = 100.0): 5.3; IC50 (Antibody (RS2708); Table 1, antibody coated at 5 μg/ml, HRP tracer at 1/64K): 0.164 ng/mL
COc1cc([N+](=O)[O-])c(OC)cc1CCNCc1ccccc1OC [25N-NBOMe•HCl, N-(2-Methoxybenzyl)-2-(2,5-dimethoxy-4-nitrophenyl)ethylamine] | 115.5% | 0.142 ng/mL | –
CCCc1cc(OC)c(CCNCc2ccccc2OC)cc1OC [25P-NBOMe•HCl] | 111.6% | 0.147 ng/mL | –
CCSc1cc(OC)c(CCNCc2ccccc2OC)cc1OC.Cl [25T2-NBOMe•HCl] | 120.6% | 0.136 ng/mL | –
COc1cc(SC(C)C)c(OC)cc1CCNCc1ccccc1OC [25T4-NBOMe•HCl] | 118% | 0.139 ng/mL | –
CCCSc1cc(OC)c(CCNCc2ccccc2OC)cc1OC [25T7-NBOMe•HCl] | 118% | 0.139 ng/mL | –
COc1cc(CCN)c(OC)cc1Br [Compound 2C-B] | – | – | B/Bo (Antibody (RS2708); Table 4, samples @ 100 ng/ml): 89.9; IC50 (Antibody (RS2708); Table 4, samples @ 100 ng/ml): >100; % CR (Antibody (RS2708); Table 4, samples @ 100 ng/ml): <0.16%
CCc1cc(OC)c(CCN)cc1OC [Compound 2C-E] | – | – | B/Bo (Antibody (RS2708); Table 4, samples @ 100 ng/ml): 92.2; IC50 (Antibody (RS2708); Table 4, samples @ 100 ng/ml): >100; % CR (Antibody (RS2708); Table 4, samples @ 100 ng/ml): <0.16%
COc1cc(CCN)c(OC)cc1I [Compound 2C-I] | – | – | B/Bo (Antibody (RS2708); Table 4, samples @ 100 ng/ml): 88.8; IC50 (Antibody (RS2708); Table 4, samples @ 100 ng/ml): >100; % CR (Antibody (RS2708); Table 4, samples @ 100 ng/ml): <0.16%; dose [1]: around 20 milligrams
COc1cc(CCNCc2ccccc2OC)c(OC)cc1I [Compound 25I-NBOMe, 2-(4-Iodo-2,5-dimethoxyphenyl)-N-[(2-methoxyphenyl)methyl] ethanamine] | – | – | dose [1]: less than one milligram; Clinical features [2]: tachycardia, hypertension, agitation, aggression, visual and auditory hallucinations, seizures, hyperplexia, clonus, elevated white cell count, elevated creatine kinase, metabolic acidosis and acute kidney injury
COc1cc([N+](=O)[O-])c(OC)cc1CCNCc1ccccc1O [Compound 25N-NBOH] | 26.7% | 0.615 ng/mL (≈ 1.85 nM) | –
COc1cc(CC(C)N)c(OC)cc1Br (stereo not shown) [DOB, 2,5-Dimethoxy-4-bromoamphetamine] | – | – | B/Bo (Antibody (RS2708); Table 4, samples @ 100 ng/ml): 91.8; IC50 (Antibody (RS2708); Table 4, samples @ 100 ng/ml): >100; % CR (Antibody (RS2708); Table 4, samples @ 100 ng/ml): <0.16%
COc1ccccc1CNCCc1cc(OC)c(OC)c(OC)c1.Cl [Mescaline-NBOMe•HCl] | 164% | 0.1 ng/mL | –
